Measured values from PubChem BioAssay (NCI).
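The compound was tested at five concentrations on cells cultured in 96-well plates, with a 48-hour exposure period. TGI denotes the concentration required for complete inhibition of growth.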

How the values were obtained:
Experiment in all cases: growth of human tumour cells (NCI), 48 h
[1] = system: HCT-15 colon
[2] = system: EKVX NSCLC
[3] = system: SNB-75 CNS
[4] = system: NCI-H23 lung
[5] = system: SF-539 CNS
[6] = system: CAKI-1 renal
[7] = system: SN12C renal
[8] = system: CCRF-CEM leukemia
[9] = system: DU-145 prostate
[10] = system: BT-549 breast
[11] = system: ACHN renal
[12] = system: HT29 colon
[13] = system: T-47D breast
[14] = system: NCI/ADR-RES ovarian
[15] = system: HCT-116 colon
[16] = system: SK-MEL-28 melanoma
[17] = system: A498 renal
[18] = system: HCC-2998 colon
[19] = system: NCI-H226 lung
[20] = system: SR leukemia
[21] = system: PC-3 prostate
[22] = system: OVCAR-5 ovarian
[23] = system: SK-MEL-5 melanoma
[24] = system: SW-620 colon
[25] = system: A549 NSCLC
[26] = system: KM12 colon
[27] = system: K-562 leukemia
[28] = system: SK-OV-3 ovarian
[29] = system: MDA-MB-231 breast
[30] = system: MDA-N
[31] = system: HS 578T breast
[32] = system: NCI-H460 lung
[33] = system: IGROV1 ovarian
[34] = system: LOX IMVI melanoma
[35] = system: TK-10 renal
[36] = system: MALME-3M melanoma
[37] = system: UACC-62 melanoma
[38] = system: OVCAR-8 ovarian
[39] = system: 786-0 renal
[40] = system: SNB-19 CNS
[41] = system: SF-295 CNS
[42] = system: SF-268 CNS
[43] = system: MDA-MB-435
[44] = system: SK-MEL-2 melanoma
[45] = system: U251 CNS
[46] = system: HOP-92 NSCLC
[47] = system: M14 melanoma
[48] = system: COLO 205 colon
[49] = system: OVCAR-4 ovarian
[50] = system: NCI-H522 lung
[51] = system: HL-60(TB) leukemia
[52] = system: UO-31 renal
[53] = system: UACC-257 melanoma
[54] = system: MCF7 breast
[55] = system: HOP-62 NSCLC
[56] = system: OVCAR-3 ovarian
[57] = system: MOLT-4 leukemia

SMILES: CCN1CC2(COC)C(O)CC(OC)C34C5CC6(O)C(OC)C=C(C5C6OC(=O)c5ccc(OC)c(OC)c5)C(C(OC)C23)C14 (stereo unspecified)
- TGI [1]: > 7.5 µM
- TGI [2]: > 7.5 µM
- TGI [3]: > 7.5 µM
- TGI [4]: > 7.5 µM
- TGI [5]: > 7.5 µM
- TGI [6]: > 7.5 µM
- TGI [7]: > 7.5 µM
- TGI [8]: > 7.5 µM
- TGI [9]: > 7.5 µM
- TGI [10]: > 7.5 µM
- TGI [11]: > 7.5 µM
- TGI [12]: > 7.5 µM
- TGI [13]: > 7.5 µM
- TGI [14]: > 7.5 µM
- TGI [15]: > 7.5 µM
- TGI [16]: > 7.5 µM
- TGI [17]: > 7.5 µM
- TGI [18]: > 7.5 µM
- TGI [19]: > 7.5 µM
- TGI [20]: > 7.5 µM
- TGI [21]: > 7.5 µM
- TGI [22]: > 7.5 µM
- TGI [23]: > 7.5 µM
- TGI [24]: > 7.5 µM
- TGI [25]: > 7.5 µM
- TGI [26]: > 7.5 µM
- TGI [27]: > 7.5 µM
- TGI [28]: > 7.5 µM
- TGI [29]: > 7.5 µM
- TGI [30]: > 7.5 µM
- TGI [31]: > 7.5 µM
- TGI [32]: > 7.5 µM
- TGI [33]: > 7.5 µM
- TGI [34]: > 7.5 µM
- TGI [35]: > 7.5 µM
- TGI [36]: > 7.5 µM
- TGI [37]: > 7.5 µM
- TGI [38]: > 7.5 µM
- TGI [39]: > 7.5 µM
- TGI [40]: > 7.5 µM
- TGI [41]: > 7.5 µM
- TGI [42]: > 7.5 µM
- TGI [43]: > 7.5 µM
- TGI [44]: > 7.5 µM
- TGI [45]: > 7.5 µM
- TGI [46]: > 7.5 µM
- TGI [47]: > 7.5 µM
- TGI [48]: > 7.5 µM
- TGI [49]: > 7.5 µM
- TGI [50]: > 7.5 µM
- TGI [51]: > 7.5 µM
- TGI [52]: > 7.5 µM
- TGI [53]: > 7.5 µM
- TGI [54]: > 7.5 µM

SMILES: C=C[C@H]1CN2CCc3c([nH]c4cc(O)ccc34)[C@@H]2C[C@@H]1C[C@H]1c2[nH]c3ccccc3c2CCN1C
- TGI [1]: 6.54 µM
- TGI [2]: 20.1 µM
- TGI [3]: 6.62 µM
- TGI [4]: 31.8 µM
- TGI [5]: 3.33 µM
- TGI [55]: 9.37 µM
- TGI [6]: 14.6 µM
- TGI [7]: 13.3 µM
- TGI [8]: 3.98 µM
- TGI [9]: 33.9 µM
- TGI [10]: 27.2 µM
- TGI [11]: 10.1 µM
- TGI [12]: 6.4 µM
- TGI [13]: 36.1 µM
- TGI [14]: 24.6 µM
- TGI [15]: 5.94 µM
- TGI [16]: 3.27 µM
- TGI [17]: 5.83 µM
- TGI [18]: 3.44 µM
- TGI [19]: 36.3 µM
- TGI [20]: 6.41 µM
- TGI [21]: 9.69 µM
- TGI [22]: 31.4 µM
- TGI [23]: 3.14 µM
- TGI [24]: 3.87 µM
- TGI [25]: 15 µM
- TGI [26]: 9.13 µM
- TGI [27]: 7.88 µM
- TGI [28]: 27.4 µM
- TGI [29]: 16.9 µM
- TGI [30]: 3.22 µM
- TGI [31]: 11.1 µM
- TGI [56]: 9.55 µM
- TGI [32]: 4.96 µM
- TGI [33]: 3.39 µM
- TGI [34]: 9.67 µM
- TGI [35]: 22.1 µM
- TGI [36]: 26.9 µM
- TGI [37]: 8.46 µM
- TGI [38]: 11.8 µM
- TGI [39]: 3.36 µM
- TGI [40]: 17.6 µM
- TGI [41]: 9.15 µM
- TGI [42]: 15.8 µM
- TGI [43]: 3.76 µM
- TGI [44]: 7.65 µM
- TGI [45]: 3.24 µM
- TGI [46]: 8.08 µM
- TGI [47]: 3.14 µM
- TGI [48]: 3.31 µM
- TGI [49]: 18.7 µM
- TGI [50]: 8.29 µM
- TGI [51]: 7.69 µM
- TGI [52]: 4.81 µM
- TGI [57]: 12.4 µM
- TGI [53]: 3.98 µM
- TGI [54]: 6.01 µM

SMILES: O=C1/C(=C/c2ccc(Cl)cc2)CCC/C1=C\c1ccc(O)c(CN2CCCCC2)c1
- TGI [1]: 27.2 µM
- TGI [2]: 40.7 µM
- TGI [3]: > 100 µM
- TGI [4]: 49.1 µM
- TGI [5]: 58.3 µM
- TGI [55]: > 100 µM
- TGI [6]: 40.2 µM
- TGI [7]: 87.8 µM
- TGI [8]: 35 µM
- TGI [9]: 36.9 µM
- TGI [10]: 31 µM
- TGI [11]: 30.7 µM
- TGI [12]: 17.5 µM
- TGI [13]: 63.5 µM
- TGI [14]: 51.8 µM
- TGI [15]: 33.5 µM
- TGI [16]: 62.6 µM
- TGI [17]: 30 µM
- TGI [18]: 38.7 µM
- TGI [19]: 35.5 µM
- TGI [20]: 9.67 µM
- TGI [21]: > 100 µM
- TGI [22]: 50.4 µM
- TGI [23]: 35.3 µM
- TGI [24]: > 100 µM
- TGI [25]: > 100 µM
- TGI [26]: 16.7 µM
- TGI [27]: 66.1 µM
- TGI [28]: 89.5 µM
- TGI [29]: 63.6 µM
- TGI [30]: > 100 µM
- TGI [31]: 46 µM
- TGI [56]: 87.5 µM
- TGI [32]: 94.3 µM
- TGI [33]: 44 µM
- TGI [34]: 42.5 µM
- TGI [35]: 79.2 µM
- TGI [36]: 59.1 µM
- TGI [37]: 36 µM
- TGI [38]: 48.8 µM
- TGI [39]: 34.5 µM
- TGI [40]: > 100 µM
- TGI [41]: 43.3 µM
- TGI [43]: > 100 µM
- TGI [44]: > 100 µM
- TGI [45]: 57.1 µM
- TGI [46]: 42.1 µM
- TGI [47]: 49.3 µM
- TGI [48]: 59.3 µM
- TGI [49]: 44.2 µM
- TGI [51]: 7.25 µM
- TGI [52]: 31.5 µM
- TGI [57]: 69.4 µM
- TGI [53]: 90.7 µM
- TGI [54]: > 100 µM
